Drawing on ChEMBL document CHEMBL3997767, “Magnetic Microbead Affinity Selection Screening (MagMASS) of Botanical Extracts for Inhibitors of 15-Lipoxygenase” (J Nat Prod, 2016), this text covers IC50 and Activity for three compounds.

Molecules are shown by their SMILES. The source made the active and inactive calls. No cut-off for these calls is given here.

Assay [1] deals with T1, Polyunsaturated fatty acid lipoxygenase ALOX15 (Homo sapiens, UniProt P16050).
T1 sequence (P16050 whole entry): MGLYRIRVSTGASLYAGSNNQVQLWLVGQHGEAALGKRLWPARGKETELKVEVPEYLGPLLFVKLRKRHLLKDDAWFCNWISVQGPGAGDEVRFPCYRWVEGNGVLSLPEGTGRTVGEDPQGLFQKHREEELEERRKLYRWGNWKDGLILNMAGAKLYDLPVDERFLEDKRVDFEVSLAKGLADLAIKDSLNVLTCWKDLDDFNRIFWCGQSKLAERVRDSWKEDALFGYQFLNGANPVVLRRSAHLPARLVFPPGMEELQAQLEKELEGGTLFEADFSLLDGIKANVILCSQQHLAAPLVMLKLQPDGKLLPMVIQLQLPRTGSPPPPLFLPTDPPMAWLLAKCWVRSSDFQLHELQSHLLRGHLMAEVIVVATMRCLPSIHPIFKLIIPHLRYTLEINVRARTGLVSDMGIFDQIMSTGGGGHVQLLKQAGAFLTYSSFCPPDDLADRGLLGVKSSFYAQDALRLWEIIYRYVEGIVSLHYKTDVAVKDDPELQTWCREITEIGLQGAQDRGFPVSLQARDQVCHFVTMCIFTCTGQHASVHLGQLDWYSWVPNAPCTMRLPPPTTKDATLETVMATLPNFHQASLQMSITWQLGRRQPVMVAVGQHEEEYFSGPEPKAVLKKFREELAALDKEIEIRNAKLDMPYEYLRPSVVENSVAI
Briefly: Inhibition of 15-LOX (unknown origin).

The subject of assay [2] is Glycine max. Briefly: Binding affinity to soybean p1 15-LOX at 100 pmol after 1 hr by magnetic microbead affinity selection screening method.
A short description of assay [3]: Inhibition of 15-LOX in soybean using linoleic acid as substrate measured for 30 to 90 secs. More on the design: species or system Glycine max.
The subject of assay [4] is Glycine max. The assay can be described thus: Binding affinity to soybean p1 15-LOX at 10 ug after 1 hr by magnetic microbead affinity selection screening method.

Regarding `O=c1cc(-c2ccc(O)c(O)c2)oc2cc(O)cc(O)c12` [LUTEOLIN], the IC50 in assay [1] came out at 5 µM. The outcome with Glycine max [2] was Active.

For the compound `O=c1c2ccccc2[se]n1-c1ccccc1`, the result with Glycine max [2] was inactive.

As for `C[C@@H]1O[C@@H](Oc2c(-c3ccc(O)c(O)c3)oc3cc(O)cc(O)c3c2=O)[C@H](O)[C@H](O)[C@H]1O` [QUERCITRIN], the IC50 in assay [3] was 79.8 µM. Further, the outcome with Glycine max [4] was Active.
